Laboratory results from patent US20080044455A1, “Tonsillitus Treatment” (priority 2006, published 2008).

System: tonsils, throat and back of the mouth
Assay: topical application of lactic acid (diluted in a liquid carrier such as juice) to tonsils, throat and back of the mouth
Format: in vivo, human
Procedure: In one aspect, a mixture of 10% by volume of pharmaceutical lactic acid is mixed with 90% by volume liquid carrier, such as juice, and the mixture is ingested 3 times a day for a month at a dosage of one teaspoon (approximately 0.005 liters) per application. After a two week pause, the patient is evaluated for the reduction in size of the tonsils. […] The number of applications per day can be reduced to two times a day, in the event that it is hard to implement with the patient, thus extending the duration of the treatment by 10 days.
In one aspect, the mixture or solution is ingested, such as by repeatedly drinking, as at step 50, over a period of time such as a week, to topically apply the mixture or solution constituents to the surfaces of the tonsils, throat and/or mouth, at least twice, with a duration of time between the two applications.

CC(O)C(=O)O (stereo not drawn) [lactic acid, Lactic Acid]
size of the tonsils (topical application to tonsils, throat and mouth): reduction of the size of the tonsils
recurrence of the inflammation and infection causing the inflammation (topical application, lactic acid diluted in a liquid carrier such as a juice): reduction in the recurrence of the inflammation and infection
inflammation and pain in the treated areas (topical application, lactic acid diluted in a liquid carrier such as a juice, drunk or otherwise applied): reduction of both inflammation and pain in the treated areas
